Reference: patent US20140056952A1, “METHODS AND COATINGS FOR TREATING BIOFILMS” (President and Fellows of Harvard College, priority 2011, published 2014)
Entries after “also recorded” stand apart in the source; their conditions may differ.

Columns and labels:
[1] = tested on: B. subtilis strain NCBI3610; assay: Pellicle (biofilm) formation inhibition assay in liquid biofilm-inducing medium; assay type: cell-based, Bacillus subtilis; details: for concentration needed for inhibition of biofilm formation: B. subtilis pellicle formation; for biofilm-inhibitory activity (library of polyamines): B. subtilis; for inhibition of pellicle formation: final concentration of 50 μM
Description: Bacillus subtilis strains PY79, 3610 and their derivatives were grown in Luria-Bertani (LB) medium at 37° C. or MSgg medium (1) at 23° C. Solid media contained 1.5% Bacto agar. When appropriate, antibiotics were added at the following concentrations for growth of B. subtilis: 10 μg per ml of tetracycline, and 5 μg per ml of erythromycin, 500 μg per ml of spectinomycin.
B. subtilis strain NCBI3610 was grown at 22° C. in 12-well plates in liquid biofilm-inducing medium for 3 or 8 days. Conditioned medium (500 ml) from an 8-day-old culture was concentrated on the C-18 column and eluted step-wise with methanol.
To identify the second biofilm-inhibiting factor, high-performance liquid chromatography (HPLC) was carried out on the 25% methanol eluate using a phenyl-hexyl column. […] Cells of NCBI3610 were grown in fresh medium containing PBS buffer (control), norspermidine (100 μM), morpholine (100 μM) HPLC-purified fatty acid (˜100 μM), or spermidine (100 μM).
Pellicle formation of strain NCBI 3610 was tested in the presence of the indicated concentrations of norspermidine (FIG. 1D) or spermidine (FIG. 1E).
To identify features of norspermidine important for its biofilm disassembly activity, we tested a library of polyamines in our biofilm inhibition assay (FIGS. 9A, 9B, 10 and Table 2).
The effect of polyamines on pellicle formation by B. subtilis was examined. B. subtilis wild-type cells were grown to a mid-logarithmic phase and diluted 1:1000 in biofilm media applied with each polyamine to the final concentration of 50 μM.
The effect of cyclic polyamines on biofilm formation by B. subtilis was examined. B. subtilis wild-type cells were grown to a mid-logarithmic phase and diluted 1:1000 in biofilm media (18A) or in a medium applied with cyclic compound 1,5,9-Triazacyclododecane to the final concentration of 50 μM (18B).

[2] = tested on: exopolysaccharide of E. coli cells; assay: Fluorescence microscopy of exopolysaccharide staining; assay type: cell-based, Escherichia coli
Text: (§1) In testing E. coli, the biofilm-proficient strain MC4100 was selected because a major component of exopolysacchride is colanic acid (Danese et al., 2000; Price and Raivio, 2009).

TasA-mCherry = assay: Fluorescence microscopy of TasA-mCherry fusion; assay type: cell-based, Bacillus subtilis; details: norspermidine 50 μM
Description: NCBI 3610 containing the tasA-mCherry fusion (DR30) was grown without shaking in a biofilm medium (upper row) or in the same medium applied with norspermidine (50 μM, lower row). Cells were washed in PBS, and visualized by fluorescence microscopy.
(§2) To investigate further, exopolysaccharide was visualized by fluorescence microscopy using a conjugate of the carbohydrate-binding protein concanavalin A with Texas Red (FIG. 5) (McSwain et al., 2005). As evidence of specificity, the conjugate decorated wild-type cells but not cells from a mutant (Δeps) blocked in exopolysaccharide production (FIG. 6A). Indeed, at an exposure at which concanavalin A staining with the wild type strain gave an extremely bright fluorescent signal, little or no signal could be detected for the Δeps mutant, except at long exposures and enhanced brightness (FIG. 6A). Next, we investigated the effects of norspermidine and spermidine. […] Therefore, the difference in the staining was evidently due to differential levels of cell-associated exopolysaccharide. […] Thus, while not being bound to any theory, it is believed that norspermidine disrupts the matrix and by targeting exopolysaccharide.

[3] = tested on: Proteus mirabilis strain BB2000; assay: Biofilm formation in polystyrene wells, crystal violet OD 595 nm; assay type: cell-based; details: 1 mM, 48 hours at 30° C., vs no treatment control
Description: To examine the effects of polyamines on biofilm formation, wells were initially treated with water (no treatment), 1 mM norspermidine, and 1 mM norspermine in 3 ml M9+glucose before inoculation with P. mirabilis. Biofilms were permitted to grow for 48 hours at 30° C. without shaking The amount of biofilm formed was assessed with the standard assay of crystal violet staining (O'Toole G et al., Biofilm formation as microbial development, Annu Rev. Microbiol. (2000) 54:49-79); supernatant was removed from the wells and crystal violet (at […]) was then incubated in each well for 15 minutes at room temperature, followed by removal of the crystal violet from the wells and a subsequent washes with water. Any crystal violet attached the wells was next solubilized with 95% ethanol for 15 minutes at room temperature, and the subsequent optical density at 595 nm in each well was measured with a multiplate reader.

[4] = tested on: B. subtilis strain NCBI3610; assay: Pellicle (biofilm) formation inhibition assay in liquid biofilm-inducing medium; assay type: cell-based, Bacillus subtilis
S. aureus strain SCO1 = assay: Submerged biofilm formation, crystal violet staining; assay type: cell-based, Staphylococcus aureus; details: norspermidine 10 μM, norspermine 100 μM; library at 500 μM
Description: (§3) The compounds were tested at 500 μM. Biofilm formation was visualized by crystal violet staining of submerged biofilms.
(§4) Whether polyamines might prevent biofilm formation by other bacteria that produce an exopolysaccharide matrix was examined. […] The compounds were tested at 500 μM. Biofilm formation was visualized by crystal violet staining of submerged biofilms.
Similarly, FIGS. 19A-H show the results of S. aureus strain SC-01 grown to a mid-logarithmic phase and diluted 1:1000 into a 12 wells plate in a TSB medium applied with NaCl (3%) and Glucose (0.5%). The medium was applied with norspermidine (10 μM), norspermine (100 μM) or spermine (500 μM). Planktonic cells were removed (19A-D). Wells were washed once, and incubated with Crystal Violet (0.1%) for 15 mins. Wells were washed twice in DDW (19E-H).
The effect of certain polyamines combined with biofilm-inhibiting D-amino acids in Staphylococcus was examined. S. aureus strain SC-01 was grown to a mid-logarithmic phase and diluted 1:1000 into a 12 wells plate in a TSB medium applied with NaCl (3%) and Glucose (0.5%). The medium was applied with either norspermidine or D-tyrosine or both as indicated below each panel. Planktonic cells were removed Wells were washed once, and incubated with Crystal Violet (0.1%) for 15 mins. Wells were washed twice in DDW.

B. subtilis NCBI 3610 = assay: Cell growth in MSgg medium with shaking; assay type: cell-based, Bacillus subtilis; details: norspermidine 100 μM
Description: NCBI 3610 was grown in MSgg medium applied with norspermidine (100 μM) with shaking or in untreated medium served as a control (NT). […] Therefore, whether norspermidine interacts directly with the exopolysaccharide was investigated. To attempt to detect such an interaction, dynamic light scattering was used. Dynamic scattering is a standard procedure for measuring the average radius of polymers in which a laser beam is transmitted through a sample containing polymers in solution (Berne, 1976; Orgad et al., 2011; Vinayahan et al., 2010).

[5] = tested on: B. subtilis wild-type cells; assay: Biofilm formation on solid biofilm medium; assay type: cell-based, Bacillus subtilis; details: 1 μl cells mixed with 1 μl (1 mM) polyamine
Description: B. subtilis wild-type cells were grown to a mid-logarithmic phase and 1 μl of cells was mixed with 1 μl (1 mM) of each polyamine. The mixture was plated on solid biofilm medium.
B. subtilis wild-type cells were grown to a mid-logarithmic phase and 1 μl of cells was either mixed with PBS (18C) or mixed with 1 μl (1 mM) of each polyamine (18D). The mixture was plated on solid biofilm medium. “3*” refers to 1,5,9-Triazacyclododecane.

E. coli strain MC4100 = assay: Submerged biofilm formation, crystal violet staining; assay type: cell-based, Escherichia coli; details: library tested at 500 μM
Description: as §3, §4, §1

[6] = tested on: exopolysaccharide of S. aureus cells; assay: Fluorescence microscopy of exopolysaccharide staining; assay type: cell-based, Staphylococcus aureus
[7] = tested on: P. aeriginosa strain PA14; assay: Biofilm formation on solid M63 medium; assay type: cell-based, Pseudomonas aeruginosa; details: 1 μl cells mixed with 1 μl (10 mM) polyamine
Description: The effect of polyamines on biofilm formation by Pseudomonas was examined. P. aeriginosa strain PA14 were grown to a mid-logarithmic phase and 1 μl of cells was mixed with 1 μl (10 mM) of each polyamine. The mixture was plated on solid M63 medium.

[8] = tested on: exopolysaccharide of B. subtilis NCBI 3610 cells; assay: Fluorescence microscopy of exopolysaccharide with concanavalin A-Texas Red; assay type: cell-based, Bacillus subtilis; details: norspermidine 25 μM, spermidine 1 mM
Text: The cells were washed in PBS and stained for exopolysaccharide with a conjugate of concanavalin A with Texas-Red.
as §2

B. subtilis pellicles = assay: Disassembly of pre-formed pellicles (OD600 of medium vs pellicle); assay type: cell-based, Bacillus subtilis; details: 250 μM applied at day 2, additional 24 hrs
Description: After incubation for the indicated times, pellicle material and the medium were separated and each brought to a volume of 3 ml. After mild sonication, the OD600 was determined for each sample. The % of disassembly represents the OD600 of the medium as a percent of the sum of the OD600 of the medium and the OD600 of the pellicle. […] Thus, D-amino acids and norspermidine act synergistically in preventing biofilm formation and triggering the disassembly of mature biofilms.
Whether polyamines could trigger disassembly of biofilms formed by B. subtilis was examined. B. subtilis wild-type cells grown in liquid biofilm medium. Cells were grown to mid-logarithmic phase and diluted 1:1000 in liquid biofilm media. At day 2, pre-formed pellicles were applied with either PBS (A) or norspermine (250 μM) (B). Pellicles were incubated for additional 24 hrs.

## 1,3-diaminopropane [Molecule 6]
[1]
  concentration needed for inhibition of biofilm formation: > 5 mM

## NCCCNCCCN [Molecule 1, N-(3-aminopropyl)propane-1,3-diamine]
[2]
  staining of exopolysaccharide, E. coli: markedly diminished staining
TasA-mCherry
  effect on protein component of the matrix (TasA-mCherry): little or no effect
[3]
  reduction of Proteus mirabilis biofilm formation: sufficient to reduce biofilm formation
[4]; ΔepsH, DS76, 25 μM norspermidine
  effect on residual pellicle of exopolysaccharide mutant: little effect
[4]; ΔtasA, FC55, 25 μM norspermidine
  effect on pellicle formation by amyloid fiber mutant: abolished pellicle formation
S. aureus strain SCO1
  inhibition of biofilm formation by S. aureus: inhibited the formation of submerged biofilms; also recorded: inhibit biofilm formation
B. subtilis NCBI 3610
  cell growth: not significantly inhibited
[1]
  biofilm-inhibitory activity (library of polyamines): exhibited biofilm-inhibitory activity
  inhibition of pellicle formation: inhibit biofilm formation
[1]; B. subtilis biofilm inhibition assay
  MBIC- Minimal Biofilm Inhibitory Concentration: 25 to 50 µM
[1]; authentic norspermidine, NCBI3610 pellicle
  concentration at which biofilm formation was inhibited: 25 µM
[5]
  inhibition of biofilm formation on solid biofilm medium: inhibit biofilm formation
E. coli strain MC4100
  inhibition of biofilm formation by E. coli: inhibited the formation of submerged biofilms
[6]
  staining of exopolysaccharide, S. aureus: markedly diminished staining
[7]
  inhibition of biofilm formation by Pseudomonas: inhibit biofilm formation
[8]
  pattern of exopolysaccharide staining: disrupted the relatively uniform, cell-associated pattern of staining

## NCCCNCCCNCCCN [Molecule 2, N′-[3-(3-aminopropylamino)propyl]propane-1,3-diamine]
[3]
  reduction of Proteus mirabilis biofilm formation: sufficient to reduce biofilm formation
S. aureus strain SCO1
  inhibition of biofilm formation by S. aureus: inhibited the formation of submerged biofilms; also recorded: inhibit biofilm formation
[1]
  biofilm-inhibitory activity (library of polyamines): exhibited biofilm-inhibitory activity
  inhibition of pellicle formation: inhibit biofilm formation
[5]
  inhibition of biofilm formation on solid biofilm medium: inhibit biofilm formation
E. coli strain MC4100
  inhibition of biofilm formation by E. coli: inhibited the formation of submerged biofilms
[7]
  inhibition of biofilm formation by Pseudomonas: inhibit biofilm formation
B. subtilis pellicles
  disassembly of pre-formed pellicles: triggered disassembly

## NCCCCNCCCN [Molecule 3, spermidine, reference compound]
[1]
  concentration needed for inhibition of biofilm formation: > 2 mM
  inhibition of pellicle formation: do not
[5]
  inhibition of biofilm formation on solid biofilm medium: do not
[8]
  pattern of exopolysaccharide staining: No such effect

## NCCCN(CCCN)CCCN [Molecule 21, N^1,N^1-bis(3-aminopropyl)propane-1,3-diamine]
[1]
  biofilm-inhibitory activity (library of polyamines): did not block activity

## C1CNCCCNCCCNC1 [c, 1,5,9-triazacyclododecane]
[1]
  inhibition of pellicle formation: inhibits biofilm formation
[5]
  inhibition of biofilm formation on solid biofilm medium: inhibits biofilm formation

## speramide [reference compound]
[1]
  inhibition of pellicle formation: do not
[5]
  inhibition of biofilm formation on solid biofilm medium: do not
